# In EP0326963B1, “Deodorant as well as deodorizing food, drink and seasoning” (priority 1988, dated 1989):
# “And” between values parts separate entries of the source, which are not always exact repeats. Equal values may be shown once.
# What was measured:
# [1] = test system: urogenous smell; assay: Test Example 1: smell of fresh urine of cats, potassium phytate solution 8mg/ml; assay type: in vivo; parameters: key to Deodorizing Effects 1st day / Deodorizing Effects 3rd day / Deodorizing Effects 5th day / Deodorizing Effects 7th day / Deodorizing Effects 14th day: 1: No change; 2: Weaken; 3: Almost no recognizable smell
# Experimental: A solution containing potassium phytate in an amount of 8mg/ml (Example 1) was administered to cats (5 heads, body weight of about 5kg) in an amount of 3ml/head/day over 14 days. After 1, 3, 5, 7 and 14 days from the first administration, fresh urine was taken with use of a catheter to immediately check a degree of its smell by 3 judges. […]
# [2] = test system: urogenous smell; assay: Test Example 2: smell of fresh urine of cats, potassium phytate solution 20mg/ml; assay type: in vivo, crossbred mature cats; parameters: key to Deodorizing Effects 1st day / Deodorizing Effects 3rd day / Deodorizing Effects 5th day / Deodorizing Effects 7th day: 1: No change; 2: Weaken; 3: Almost no recognizable smell; details: 20mg/ml solution
# Experimental: A solution containing potassium phytate in an amount of 20mg/ml (Example 1) was administered to crossbred mature cats (8 heads, body weight of about 5kg) in an amount of 3ml/head/day over 7 days. After 1, 3, 5 and 7 days from the first administration, fresh urine was taken with use of a catheter to immediately check a degree of its smell by 3 judges. […]
# [3] = test system: urogenous smell; assay: Test Example 3: smell of fresh urine of cats, potassium phytate/lactose powder in food; assay type: in vivo, crossbred mature cats; parameters: key to Deodorizing Effects 1st day / Deodorizing Effects 3rd day / Deodorizing Effects 5th day / Deodorizing Effects 7th day: 1: No change; 2: Weaken; 3: Almost no recognizable smell
# Experimental: A powder composition was prepared by mixing potassium phytate and lactose, which composition containing the phytate in an amount of 24mg/g. The composition was mixed with a powdered food which was […] by crossbred mature cats (8 heads, body weight of about 5kg) in an amount of 1g/head/day based on the composition over 7 days. After 1, 3, 5 and 7 days from the first administration, fresh urine was taken with use of a catheter to immediately check a degree of its smell by 3 judges. […]
# [4] = test system: urogenous smell; assay: Test Example 4: smell of fresh urine of cats, cat food containing potassium phytate; assay type: in vivo, crossbred mature cats; parameters: key to Deodorizing Effects 2nd day / Deodorizing Effects 3rd day / Deodorizing Effects 4th day / Deodorizing Effects 5th day / Deodorizing Effects 7th day: 1: No change; 2: Weaken; 3: Almost no recognizable smell; details: cat food with 0.1mg/g
# Experimental: To a moisture type cat food, potassium phytate was composed in an amount of 0.1mg/g. The cat food was given to crossbred mature cats (2 heads, body weight of about 5kg) in an amount 100g/day over 7 days. After 2, 3, 4, 5 and 7 days from the first administration, fresh urine was taken with use of a catheter to immediately check a degree of its smell by 3 judges. […]
# [5] = test system: urogenous smell; assay: Test Example 5: smell of fresh urine of rabbits, potassium phytate in drinking water; assay type: in vivo; parameters: key to Deodorizing Effects 1st day / Deodorizing Effects 3rd day / Deodorizing Effects 5th day / Deodorizing Effects 7th day / Deodorizing Effects 14th day: 1: No change; 2: Weaken; 3: Almost no recognizable smell
# Experimental: An aqueous solution containing potassium phytate in an amount of 20mg/ml was added to 170 ml of drinking water for each experimented animal (rabbits, 2 heads) in amount of 2ml. The resulting drinking water was given for each day over 14 days, so that it can be […] by the animal in free together with their food. After 1, 3, 5, 7 and 14 days from the first giving of the drinking water containing the compound, fresh urine was taken with use of a catheter to immediately check a degree of its smell by 3 judges. […] While, there was no change in a fragrant smell which may be considered due to plant terpenes contained in their food.
# [6] = test system: urogenous smell; assay: Test Example 6: urogenous smell of hamsters, potassium phytate in drinking water; assay type: in vivo; details: hamsters (2 pairs); 10mg/kg in drinking water over 14 days; checked on finely cut newspaper used as litter
# Experimental: An aqueous solution containing potassium phytate in an amount of 20mg/ml was prepared. The solution was added to drinking water for each experimented animal (hamsters, 2 pairs) over 14 days, so that each animal can intake the compound in an amount of 10mg/kg.
# [7] = test system: ozostomy; assay type: in vivo, normal persons; details: 3 judges
# Experimental: Following substances generating unpleasant smell were intaken by each panel (3 normal persons) who immediately drinks an aqueous solution of potassium phytinate (105mg/10ml). On contrary thereto, each control panel drinks were drinking water in same amount.
# An inspection of ozostmy was carried out from time to time at intervals by 3 judges (to be judged as positive, when 2 or 3 judges feel the unpleasant smell) and by self notification of the experimented person.
# Unpleasant smell generating materials : • a) Garlic (10g as grated one), • b) Leek (50g as cooked one), • c) Scallion (50g as pickled one), • d) Onion (100g as grated one), • e) Welsh onion (100g as cooked one), • f) Tobacco (carrying out a functional test by the third party on smokers who smoke more than 50 cigarette per diem), and • g) Alcohol (drink 300ml of Japanese sake, when the stomach of experimented person emties).
# [8] = test system: urogenous smell; assay: Test Example 10: urogenous smell of rats fed high protein cat food; assay type: in vivo; parameters: key: Judged by 4 stage judgement of ++, +, ± and −; Judged by 4 stage judgement of ++, +, ± and −; Judged by 4 stage judgement of ++, +, ± and −; Judged by 4 stage judgement of ++, +, ± and −
# Experimental: As experimental animal, rats were employed, they had been fed with a cat food of high protein content (30%) to excrete urine with a smell inherent in that of cats. To test group I, potassium phytate was administrated in abdominal cavity at a dose of 3mg/day over 5 days and while, to test group II, the compound was given in the similar to the above but at a dose of 30mg/day. To control group, no compound was given.
# [9] = cats, 8mg/ml solution, 3ml/head/day
# [10] = cats, powder 24mg/g, 1g/head/day in food
# [11] = rabbits, potassium phytate in drinking water
# [12] = test group I: 3mg/day in abdominal cavity over 5 days
# [13] = test group II: 30mg/day in abdominal cavity over 5 days
smiles,measurement,setting,value
"O=P(O)(O)O[C@H]1[C@H](OP(=O)(O)O)[C@@H](OP(=O)(O)O)[C@H](OP(=O)(O)O)[C@@H](OP(=O)(O)O)[C@H]1OP(=O)(O)O [potassium phytate, Potassium phytate]",Efficiency 1st day,"[1]; cats (5 heads), 8mg/ml solution, 3ml/head/day, 1st day",0/5
same,Efficiency 3rd day,"[1]; cats (5 heads), 8mg/ml solution, 3ml/head/day, 3rd day",0/5
same,Efficiency 5th day,"[1]; cats (5 heads), 8mg/ml solution, 3ml/head/day, 5th day",4/5
same,Efficiency 7th day,"[1]; cats (5 heads), 8mg/ml solution, 3ml/head/day, 7th day",5/5
same,Efficiency 14th day,"[1]; cats (5 heads), 8mg/ml solution, 3ml/head/day, 14th day",5/5
same,deodorizing effect of the compound appears,[1]; [9],by third day
same,urogenous smell was disappeared,[1]; [9],on fifth day
same,similar test repeated,"[1]; cats, repeated after 10 days from the final administration",results same with said first test
same,urogenous smell after the final administration,"[1]; cats, several days after the final administration",appeared again
same,Deodorizing Effects 3rd day,"[1]; individual cat, 8mg/ml solution, 3ml/head/day over 14 days, 3rd day",1 and 2 (4×)
same,Deodorizing Effects 5th day,"[1]; individual cat, 8mg/ml solution, 3ml/head/day over 14 days, 5th day",2 and 3 (4×)
same,Deodorizing Effects 7th day,"[1]; individual cat, 8mg/ml solution, 3ml/head/day over 14 days, 7th day",3
same,Deodorizing Effects 14th day,"[1]; individual cat, 8mg/ml solution, 3ml/head/day over 14 days, 14th day",3
same,Deodorizing Effects 1st day,"[1]; individual cat, 8mg/ml solution, 3ml/head/day over 14 days, fresh urine, 3 judges, 1st day",1
same,Efficiency 1st day,"[2]; cats (8 heads), 3ml/head/day, 1st day",0/8
same,Efficiency 3rd day,"[2]; cats (8 heads), 3ml/head/day, 3rd day",0/8
same,Efficiency 5th day,"[2]; cats (8 heads), 3ml/head/day, 5th day",8/8
same,Efficiency 7th day,"[2]; cats (8 heads), 3ml/head/day, 7th day",8/8
same,deodorizing effect of the compound appears,"[2]; cats, 3ml/head/day",by third day
same,urogenous smell disappeared,"[2]; cats, 3ml/head/day",on fifth day
same,Deodorizing Effects 1st day,"[2]; individual cat, 3ml/head/day over 7 days, 1st day",1 (6×) and 2 (2×)
same,Deodorizing Effects 3rd day,"[2]; individual cat, 3ml/head/day over 7 days, 3rd day",2
same,Deodorizing Effects 5th day,"[2]; individual cat, 3ml/head/day over 7 days, 5th day",3
same,Deodorizing Effects 7th day,"[2]; individual cat, 3ml/head/day over 7 days, 7th day",3
same,Efficiency 1st day,"[3]; cats (8 heads), powder 24mg/g, 1g/head/day in food, 1st day",0/8
same,Efficiency 3rd day,"[3]; cats (8 heads), powder 24mg/g, 1g/head/day in food, 3rd day",2/8
same,Efficiency 5th day,"[3]; cats (8 heads), powder 24mg/g, 1g/head/day in food, 5th day",8/8
same,Efficiency 7th day,"[3]; cats (8 heads), powder 24mg/g, 1g/head/day in food, 7th day",8/8
same,deodorizing effect of the compound appears,[3]; [10],by third day
same,urogenous smell disappeared,[3]; [10],on fifth day
same,Deodorizing Effects 1st day,"[3]; individual cat, powder with lactose 24mg/g, 1g/head/day in food over 7 days, 1st day",1 (4×) and 2 (4×)
same,Deodorizing Effects 3rd day,"[3]; individual cat, powder with lactose 24mg/g, 1g/head/day in food, 3rd day",3 (2×) and 2 (6×)
same,Deodorizing Effects 5th day,"[3]; individual cat, powder with lactose 24mg/g, 1g/head/day in food, 5th day",3
same,Deodorizing Effects 7th day,"[3]; individual cat, powder with lactose 24mg/g, 1g/head/day in food, 7th day",3
same,Efficiency 2nd day,"[4]; cats (2 heads), 100g/day, 2nd day",0/2
same,Efficiency 3rd day,"[4]; cats (2 heads), 100g/day, 3rd day",1/2
same,Efficiency 4th day,"[4]; cats (2 heads), 100g/day, 4th day",2/2
same,Efficiency 5th day,"[4]; cats (2 heads), 100g/day, 5th day",2/2
same,Efficiency 7th day,"[4]; cats (2 heads), 100g/day, 7th day",2/2
same,deodorizing effect of the compound appears,"[4]; cats, 100g/day",by third day
same,urogenous smell disappeared,"[4]; cats, 100g/day",on forth day
same,Deodorizing Effects 2nd day,"[4]; individual cat, 100g/day over 7 days, 2nd day",2
same,Deodorizing Effects 3rd day,"[4]; individual cat, 100g/day, 3rd day",3 and 2
same,Deodorizing Effects 4th day,"[4]; individual cat, 100g/day, 4th day",3
same,Deodorizing Effects 5th day,"[4]; individual cat, 100g/day, 5th day",3
same,Deodorizing Effects 7th day,"[4]; individual cat, 100g/day, 7th day",3
same,Deodorizing Effects 1st day,"[5]; individual rabbit, 2ml of 20mg/ml solution in 170 ml drinking water per day over 14 days, 1st day",1
same,Deodorizing Effects 3rd day,"[5]; individual rabbit, 2ml of 20mg/ml solution in 170 ml drinking water per day, 3rd day",2 (3×) and 1
same,Deodorizing Effects 5th day,"[5]; individual rabbit, 2ml of 20mg/ml solution in 170 ml drinking water per day, 5th day",3 (3×) and 2
same,Deodorizing Effects 7th day,"[5]; individual rabbit, 2ml of 20mg/ml solution in 170 ml drinking water per day, 7th day",3
same,Deodorizing Effects 14th day,"[5]; individual rabbit, 2ml of 20mg/ml solution in 170 ml drinking water per day, 14th day",3
same,Efficiency 1st day,"[5]; rabbits, 2ml of 20mg/ml solution in drinking water per day, 1st day",0/4
same,Efficiency 3rd day,"[5]; rabbits, 2ml of 20mg/ml solution in drinking water per day, 3rd day",0/4
same,Efficiency 5th day,"[5]; rabbits, 2ml of 20mg/ml solution in drinking water per day, 5th day",3/4
same,Efficiency 7th day,"[5]; rabbits, 2ml of 20mg/ml solution in drinking water per day, 7th day",4/4
same,Efficiency 14th day,"[5]; rabbits, 2ml of 20mg/ml solution in drinking water per day, 14th day",4/4
same,almost no unpleasant urogenous smell was notified,[5]; [11],on fifth day
same,deodorizing effect of the compound appears,[5]; [11],by third day
same,fragrant smell (considered due to plant terpenes contained in their food),[5]; [11],no change
same,intensity of the urogenous smell,[6],decreases on several days from the first administration
same,"ozostomy on the test group, first inspection","[7]; aqueous solution 105mg/10ml drunk immediately after intake of smell generating material, 1 hour from the intake",not so strong
same,"ozostomy on the test group, second inspection","[7]; aqueous solution 105mg/10ml, 3 hours from the intake",apparently decreases
same,Urogenous Smell 3rd day,[8]; [12],+
same,Urogenous Smell 6th day,[8]; [12],±
same,Urogenous Smell 9th day,[8]; [12],+
same,Urogenous Smell 3rd day,[8]; [13],±
same,Urogenous Smell 6th day,[8]; [13],±
same,Urogenous Smell 9th day,[8]; [13],+
